# Reference: patent EP0021678B1, “1-Sulpho-2-oxoazetidine derivatives, their production and pharmaceutical compositions thereof” (Takeda Chemical Industries, Ltd., priority 1979, dated 1981)
# Where two headings read alike, the source gives them in different places.
# Tests used:
# Test in all cases: Anti-bacterial test, minimum inhibitory concentration on agar
# Type in all cases: cell-based
# [1] = test system: Staphylococcus aureus FDA209P; settings: Staphylococcus aureus FDA209P; for MIC: Staphylococcus aureus, FDA209P, read-out: Minimum inhibitory concentration
# From the text: (§1) The compound (I) thus obtained is useful as a drug, being active against certain gram-positive and gram-negative bacteria. By way of example, the compounds are active against the following micro-organisms.
# (§2) The media and compounds employed in the anti-bacterial test are as follows: • Media: • TSA = Trypticase soy agar • [Baltimore Biologicals (U.S.A.)] • B-TSA = Blood trypticase soy agar • Compounds: • Compound A = Sodium 3-[2-(2-amino-4-thiazolyl)-2-methoxyiminoacetamido]-2-oxo-azetidine-1-sulphonate • Compound B = Sodium 3-[D(-)-N-(4-ethyl-2,3-dioxo-1-piperazinocarbonyl)-phenyl-glycin- amido]-2-oxoazetidine-1-sulphonate • Compound C = Sodium 3-[D(-)-N-(4-ethyl-2,3-dioxo-1-piperazinocarbonyl)phenylglycinamido]-3-methoxy-2-oxoazetidine-1-sulphonate • Compound D = Sodium 3-[2-(4-ethyl-2,3-dioxo-1-piperazinocarboxamido)-2-(2-amino-4-thiazolyl)-acetamido]-2-oxoazetidine-1-sulphonate • Compound E = Sodium 3-[DL-2-(4-ethyl-2,3-dioxo-1-piperazinocarboxamido)-2-thienylacetamido]-2-oxoazetidine-1-sulphonate • Compound F = Sodium 3-[D-2-(4-ethyl-2,3-dioxo-1-piperazinocarboxamido)-2-thienylacetamido]-2-oxoazetidine-1-sulphonate • Compound G = Sodium 3-[D-2-(4-n-octyl-2,3-dioxo-1-piperazinocarboxamido)-2-phenylacetamido]-2-oxoazetidine-1-sulphonate • Compound H = Sodium 3-[2-(4-n-octyl-2,3-dioxo-1-piperazinocarboxamido)-2-(2-amino-4-thiazolyl)-acetamido]-2-oxoazetidine-1-sulphonate • Compound I = Sodium 3-[D-2-[(2-oxo-3-furfurylideneaminoimidazolidin-1-yl)-carboxamido]-2-phenylacetamido]-2-oxoazetidine-1-sulphonate • Compound J = Sodium 3-[2-(4-n-octyl-2,3-dioxo-1-piperazinocarboxamido)-2-thienylacetamido]-2-oxoazetidine-1-sulphonate • Compound K = Sodium 3-[D-2-[[2-oxo-3-(thiophen-2-aidoimino)-imidazolidin-1-yl]-carboxamido]-2-phenylacetamido]-2-oxoazetidine-1-sulphonate • Compound L = Sodium 3-[2-[(2-oxo-3-furfurylideneaminoimidazolidin-1-yl)-carboxamido]-2-thienylacetamido]-2-oxoazetidine-1-sulphonate
# [2] = test system: Bordetella bronchiseptica Sagami; settings: Bordetella bronchiseptica Sagami, medium B—TSA; for MIC: read-out: Minimum inhibitory concentration
# From the text: as §1, §2
# [3] = test system: Staphylococcus aureus 308A—1; settings: for MIC: read-out: Minimum inhibitory concentration
# From the text: as §1, §2
# [4] = test system: Corynebacterium diphtheriae Toronto; settings: Corynebacterium diphtheriae Toronto, medium B—TSA; for MIC: read-out: Minimum inhibitory concentration
# From the text: as §1, §2
# [5] = test system: Citrobacter freundii IFO 12681; settings: Citrobacter freundii IFO 12681, medium TSA; for MIC: IFO12681, read-out: Minimum inhibitory concentration
# From the text: as §1, §2
# [6] = test system: Pseudomonas aeruginosa U 31; settings: Pseudomonas aeruginosa U 31, medium TSA; for MIC: U31, read-out: Minimum inhibitory concentration
# From the text: as §1, §2
# [7] = test system: Klebsiella pneumoniae DT; settings: Klebsiella pneumoniae DT, medium TSA; for MIC: read-out: Minimum inhibitory concentration
# From the text: as §1, §2
# [8] = test system: Proteus morganii IFO 3168; settings: Proteus morganii IFO 3168, medium TSA; for MIC: Morganella morganii, IFO3168, read-out: Minimum inhibitory concentration
# From the text: as §1, §2
# [9] = test system: Enterobacter cloacae IFO 12937; settings: Enterobacter cloacae IFO 12937, medium TSA; for MIC: IFO12937, read-out: Minimum inhibitory concentration
# From the text: as §1, §2
# [10] = test system: Candida albicans TA; settings: Candida albicans TA, medium TSA; for MIC: read-out: Minimum inhibitory concentration
# From the text: as §1, §2
# [11] = test system: Pseudomonas aeruginosa IFO 3455
# From the text: as §1, §2
# [12] = test system: Streptococcus pneumoniae Type I; settings: for MIC: read-out: Minimum inhibitory concentration
# From the text: as §1, §2
# [13] = test system: Escherichia coli NIHJ JC—2; settings: Escherichia coli NIHJ JC—2, medium TSA; for MIC: read-out: Minimum inhibitory concentration
# From the text: as §1, §2
# [14] = test system: Serratia marcescens IFO 12648; settings: Serratia marcescens IFO 12648, medium TSA; for MIC: IFO12648, read-out: Minimum inhibitory concentration
# From the text: as §1, §2
# [15] = test system: Streptococcus pyogenes E—14; settings: for MIC: read-out: Minimum inhibitory concentration
# From the text: as §1, §2
# [16] = test system: Escherichia coli O—111; settings: medium TSA
# From the text: as §1, §2
# [17] = test system: Staphylococcus aureus 1840; settings: Staphylococcus aureus 1840, medium TSA; for MIC: read-out: Minimum inhibitory concentration
# From the text: as §1, §2
# [18] = test system: Streptococcus mitis America; settings: for MIC: read-out: Minimum inhibitory concentration
# From the text: as §1, §2
# [19] = test system: Proteus vulgaris IFO 3988; settings: Proteus vulgaris IFO 3988, medium TSA; for MIC: IFO3988, read-out: Minimum inhibitory concentration
# From the text: as §1, §2
# [20] = test system: Proteus mirabilis IFO 3849; settings: Proteus mirabilis IFO 3849, medium TSA; for MIC: IFO3849, read-out: Minimum inhibitory concentration
# From the text: as §1, §2
# [21] = test system: Escherichia coli T-7; settings: for MIC: T7, medium TSA
# From the text: as §1, §2
# [22] = test system: Streptococcus pyogenes S—8; settings: Streptococcus pyogenes S—8, medium B—TSA; for MIC: read-out: Minimum inhibitory concentration
# From the text: as §1, §2
# [23] = test system: Acinetobacter calcoaceticus IFO 13006; settings: Acinetobacter calcoaceticus IFO 13006, medium TSA; for MIC: IFO13006, read-out: Minimum inhibitory concentration
# From the text: as §1, §2
# [24] = test system: Streptococcus faecium IFO 3128; settings: Streptococcus faecium IFO 3128, medium B—TSA; for MIC: Enterococcus faecium, IFO3128, read-out: Minimum inhibitory concentration
# From the text: as §1, §2
# [25] = Staphylococcus aureus 308A—1, medium TSA
# [26] = IFO3455, Pseudomonas aeruginosa IFO 3455, medium TSA, read-out: Minimum inhibitory concentration
# [27] = Streptococcus pneumoniae Type I, medium B—TSA
# [28] = Streptococcus pyogenes E—14, medium B—TSA
# [29] = Streptococcus mitis America, medium B—TSA
smiles,measurement,setting,value
"CCCCCCCCN1CCN(C(=O)N[C@@H](C(=O)NC2CN(S(=O)(=O)O)C2=O)c2ccccc2)C(=O)C1=O (stereo partly drawn) [Compound G, Sodium 3-[D-2-(4-n-octyl-2,3-dioxo-1-piperazinocarboxamido)-2-phenylacetamido]-2-oxoazetidine-1-sulphonate]",MIC,[1]; medium B—TSA,3.13 µg/mL
same,MIC,[1]; medium TSA,1.56 µg/mL
same,MIC,[2],> 100 µg/mL
same,MIC,[3]; [25],0.78 µg/mL
same,MIC,[4],25 µg/mL
same,MIC,[5],3.13 µg/mL
same,MIC,[6],25 µg/mL
same,MIC,[7],0.78 µg/mL
same,MIC,[8],1.56 µg/mL
same,MIC,[9],6.25 µg/mL
same,MIC,[10],> 100 µg/mL
same,MIC,[11]; [26],1.56 µg/mL
same,MIC,[12]; [27],3.13 µg/mL
same,MIC,[13],3.13 µg/mL
same,MIC,[14],1.56 µg/mL
same,MIC,[15]; [28],1.56 µg/mL
same,MIC,[16],0.78 µg/mL
same,MIC,[17],25 µg/mL
same,MIC,[18]; [29],25 µg/mL
same,MIC,[19],0.78 µg/mL
same,MIC,[20],3.13 µg/mL
same,MIC,[21],> 100 µg/mL
same,MIC,[22],1.56 µg/mL
same,MIC,[23],3.13 µg/mL
same,MIC,[24],> 100 µg/mL
"CCCCCCCCN1CCN(C(=O)NC(C(=O)NC2CN(S(=O)(=O)O)C2=O)c2csc(N)n2)C(=O)C1=O (centres unmarked) [Compound H, Sodium 3-[2-(4-n-octyl-2,3-dioxo-1-piperazinocarboxamido)-2-(2-amino-4-thiazolyl)-acetamido]-2-oxoazetidine-1-sulphonate]",MIC,[1]; medium B—TSA,12.5 µg/mL
same,MIC,[1]; medium TSA,6.25 µg/mL
same,MIC,[2],> 100 µg/mL
same,MIC,[3]; Staphylococcus aureus,3.13 µg/mL
same,MIC,[4],0.78 µg/mL
same,MIC,[5],12.5 µg/mL
same,MIC,[6],50 µg/mL
same,MIC,[7],12.5 µg/mL
same,MIC,[8],6.25 µg/mL
same,MIC,[9],50 µg/mL
same,MIC,[10],> 100 µg/mL
same,MIC,[11]; [26],12.5 µg/mL
same,MIC,[12]; Streptococcus pneumoniae,3.13 µg/mL
same,MIC,[13],12.5 µg/mL
same,MIC,[14],12.5 µg/mL
same,MIC,[15]; Streptococcus pyogenes,3.13 µg/mL
same,MIC,[16],3.13 µg/mL
same,MIC,[17],12.5 µg/mL
same,MIC,[18]; [29],25 µg/mL
same,MIC,[19],6.25 µg/mL
same,MIC,[20],25 µg/mL
same,MIC,[21],> 100 µg/mL
same,MIC,[22],1.56 µg/mL
same,MIC,[23],50 µg/mL
same,MIC,[24],> 100 µg/mL
"O=C(NC1CN(S(=O)(=O)O)C1=O)[C@H](NC(=O)N1CCN(N=Cc2ccco2)C1=O)c1ccccc1 (stereo partly drawn) [Compound I, Sodium 3-[D-2-[(2-oxo-3-furfurylideneaminoimidazolidin-1-yl)-carboxamido]-2-phenylacetamido]-2-oxoazetidine-1-sulphonate]",MIC,[1]; medium B—TSA,6.25 µg/mL
same,MIC,[1]; medium TSA,6.25 µg/mL
same,MIC,[2],> 100 µg/mL
same,MIC,[3]; Staphylococcus aureus,3.13 µg/mL
same,MIC,[4],0.78 µg/mL
same,MIC,[5],6.25 µg/mL
same,MIC,[6],> 100 µg/mL
same,MIC,[7],0.2 µg/mL
same,MIC,[8],12.5 µg/mL
same,MIC,[9],25 µg/mL
same,MIC,[10],> 100 µg/mL
same,MIC,"[11]; Pseudomonas aeruginosa, IFO3455, read-out: Minimum inhibitory concentration",3.13 µg/mL
same,MIC,[12]; [27],1.56 µg/mL
same,MIC,[13],1.56 µg/mL
same,MIC,[14],1.56 µg/mL
same,MIC,[15]; [28],0.39 µg/mL
same,MIC,[16],3.13 µg/mL
same,MIC,[17],50 µg/mL
same,MIC,[18]; Streptococcus mitis,3.13 µg/mL
same,MIC,[19],0.2 µg/mL
same,MIC,[20],1.56 µg/mL
same,MIC,[21],> 100 µg/mL
same,MIC,[22],0.78 µg/mL
same,MIC,[23],25 µg/mL
same,MIC,[24],> 100 µg/mL
"O=C(NC1CN(S(=O)(=O)O)C1=O)[C@H](NC(=O)N1CCN(N=Cc2cccs2)C1=O)c1ccccc1 (stereo partly drawn) [Compound K, Sodium 3-[D-2-[[2-oxo-3-(thiophen-2-aidoimino)-imidazolidin-1-yl]-carboxamido]-2-phenylacetamido]-2-oxoazetidine-1-sulphonate]",MIC,[1]; medium B—TSA,6.25 µg/mL
same,MIC,[1]; medium TSA,6.25 µg/mL
same,MIC,[2],> 100 µg/mL
same,MIC,[3]; [25],3.13 µg/mL
same,MIC,[4],3.13 µg/mL
same,MIC,[5],1.56 µg/mL
same,MIC,[6],> 100 µg/mL
same,MIC,[7],0.39 µg/mL
same,MIC,[8],12.5 µg/mL
same,MIC,[9],12.5 µg/mL
same,MIC,[10],> 100 µg/mL
same,MIC,[11]; [26],3.13 µg/mL
same,MIC,[12]; [27],1.56 µg/mL
same,MIC,[13],1.56 µg/mL
same,MIC,[14],1.56 µg/mL
same,MIC,[15]; [28],0.78 µg/mL
same,MIC,[16],0.39 µg/mL
same,MIC,[17],50 µg/mL
same,MIC,[18]; [29],1.56 µg/mL
same,MIC,[19],0.39 µg/mL
same,MIC,[20],1.56 µg/mL
same,MIC,[21],> 100 µg/mL
same,MIC,[22],1.56 µg/mL
same,MIC,[23],50 µg/mL
same,MIC,[24],> 100 µg/mL
"O=C(NC1CN(S(=O)(=O)[O-])C1=O)C(NC(=O)N1CCN(N=Cc2ccco2)C1=O)c1cccs1.[Na+] (centres unmarked) [Compound L, Sodium 3-[2-[(2-oxo-3-furfurylideneaminoimidazolidin-1-yl)-carboxamido]-2-thienylacetamido]-2-oxoazetidine-1-sulphonate]",Minimum inhibitory concentration,[1]; medium B—TSA,6.25 µg/mL
same,Minimum inhibitory concentration,[1]; medium TSA,6.25 µg/mL
same,Minimum inhibitory concentration,[2],>100 µg/mL
same,Minimum inhibitory concentration,[3]; [25],3.13 µg/mL
same,Minimum inhibitory concentration,[4],1.56 µg/mL
same,Minimum inhibitory concentration,[5],1.56 µg/mL
same,Minimum inhibitory concentration,[6],>100 µg/mL
same,Minimum inhibitory concentration,[7],<0.1 µg/mL
same,Minimum inhibitory concentration,[8],12.5 µg/mL
same,Minimum inhibitory concentration,[9],25 µg/mL
same,Minimum inhibitory concentration,[10],>100 µg/mL
same,Minimum inhibitory concentration,"[11]; Pseudomonas aeruginosa IFO 3455, medium TSA",3.13 µg/mL
same,Minimum inhibitory concentration,[12]; [27],1.56 µg/mL
same,Minimum inhibitory concentration,[13],1.56 µg/mL
same,Minimum inhibitory concentration,[14],1.56 µg/mL
same,Minimum inhibitory concentration,[15]; [28],0.78 µg/mL
same,Minimum inhibitory concentration,[16],<0.1 µg/mL
same,Minimum inhibitory concentration,[17],25 µg/mL
same,Minimum inhibitory concentration,[18]; [29],6.25 µg/mL
same,Minimum inhibitory concentration,[19],0.2 µg/mL
same,Minimum inhibitory concentration,[20],0.78 µg/mL
same,Minimum inhibitory concentration,[21]; medium TSA,>100 µg/mL
same,Minimum inhibitory concentration,[22],0.78 µg/mL
same,Minimum inhibitory concentration,[23],50 µg/mL
same,Minimum inhibitory concentration,[24],>100 µg/mL
